Data: patent US5274080A, “Monospecific antibodies useful in evaluating inhibition of polymorphonuclear leukocyte elastase by N-substituted azetidinones” (Merck & Co., Inc., priority 1991, dated 1993)

Test system: antibody R674
Test: Radioimmune assay: displacement of tritium labeled reactivation product from antibody R674
Assay type: binding, rabbit
Conditions: up to 10 μM (the highest concentration tested)
Protocol: Non-antibody-bound radioactive isotope was removed from the reaction mixture by its absorption onto dextran-coated activated charcoal. […] The activated charcoal was then suspended to 3% (w/v) in PBS dextran and allowed to stand overnight, washed once again in PBS dextran and resuspended to 3% (w/v) in PBS dextran and stored at 4° C. Immediately before use in the assay, the dextran-coated activated charcoal was diluted 10-fold in DULBECCO's PBS and 1 ml was added to each assay tube. […] The supernatant fluid was decanted into 9 ml of AQUASOL-2 scintillation fluid and radioactivity counted in a beta-counter. Each assay contains charcoal free controls, to which 1 ml PBS was added, for determination of total counts (BO), and antibody free controls for determination of non-specific binding. Percent specific binding was determined by subtracting the value for non-specific binding from the value of total antiserum binding and then dividing by the total radioactivity added.
Sensitivity of the antisera R674 (2nd bleed) was determined in the above RIA. The antiserum was diluted in PET/GEL buffer (1:12,000 final dilution in the 200 μl assay volume) as described above so that it binds 20-30% of the total radioactivity added. The same diluted stock was then used for all assay tubes within the same assay. […] The assay was set up on a competition basis. […]

NC(N)=O [Urea]
effect on displacement: without effect

N=C(N)NCCC[C@H](N)C(=O)O [arginine]
effect on displacement: without effect
